US20230172203A1, “PLANT METABOLISM PROMOTING COMPOSITIONS AND METHODS OF USE” (Panoptic Ag Solutions LLC, priority 2021, published 2023)

Experiments:
[1] = system: Seedless watermelon plant seedlings; test: 2021 Watermelon Trial; assay type: in vivo
From the text: The base formulation used in greenhouse trials was an aqueous solution of L-theanine (20% by weight). The base formulation was further diluted with water as detailed for each trial. Seedless watermelon plant seedlings (n=4/treatment) were planted in commercial potting soil and then were transplanted to 3-gallon pots. L-theanine treatment was applied at the equivalent of 1 pint in 100 gallons of water (125 ppm) and sprayed till runoff. Two treatment applications were made to the plants approximately 14 days apart.

Soybean seed = test: 2020 Greenhouse Soybean Seed Treatment Trial; assay type: in vivo
Experimental: The base formulation used in greenhouse trials was an aqueous solution of L-theanine (20% by weight). The base formulation was further diluted with water as detailed for each trial. Soybean seed (n=32/treatment) was treated with an aqueous solution of L-theanine at a rate of 1.0 fl. oz. per hundredweight of soybean seed. The seeds were planted in commercial potting soil in 1-gallon pots. The plants were grown for 21 days before they were harvested.

[2] = foliar spray 125 ppm till runoff, two applications ~14 days apart
[3] = vs untreated check, 125 ppm foliar, two applications
[4] = over the untreated check, seed treatment
[5] = seed treatment 1.0 fl. oz. per hundredweight of seed, harvested after 21 days

CCNC(=O)CC[C@H](N)C(=O)O [L-theanine] was tested, and the “Fruit/Vine (count)” value [1, 2] was 9.50 a count, the “Vine Length” value [1, 2] was 51.0 a cm and the “increase in average fruit per vine” value [1, 3] was 4.75. For the same molecule, the “increase in average fruit per vine, percent” value [1, 3] was 100.0%, the “increase in vine development” value [1, 3] was 14.5 cm and the “increase in vine development, percent” value [1, 3] was 39.7%. The increase in biomass (Soybean seed; [4]) was 0.43 g, the “increase in biomass, percent” value (Soybean seed; [4]) was 8.0% and the “increase in root length” value (Soybean seed; [4]) was 94.4 cm. The “increase in root length, percent” value (Soybean seed; [4]) was 8.1%, the “increase in root tips” value (Soybean seed; [4]) was 763.4 and the “increase in root tips, percent” value (Soybean seed; [4]) was 21.0%. For the same molecule, the “Plant Biomass” value (Soybean seed; [5]) was 5.80 a g, the “Root Length” value (Soybean seed; [5]) was 1263.7 a cm and the “Root Tips (count)” value (Soybean seed; [5]) was 4392.0 a count.
